Experimental data published in US20250099512A1, “USE OF BACTEROIDES FRAGILIS IN IMPROVEMENT AND TREATMENT OF DIARRHEA” (priority 2022, published 2025).
Counter-ions that a name gives are not always drawn.

What was measured:
[1] = test system: Cryptosporidium cuniculus; test: Effect on diarrhea in rabbits infected with Cryptosporidium cuniculus, oocysts in stools (Example 12); assay type: in vivo, New Zealand white rabbits
Source text: A parasite-associated diarrhea model was constructed by intragastric administration of Cryptosporidium cuniculus oocysts (extracted from a single positive stool sample from a rabbit farm in Jilin) in New Zealand white rabbits. Subsequently, the Bacteroides fragilis live bacteria solution, inactivated bacteria powder and lysate solution (prepared in Example 2) were each used for treatment. The therapeutic effects of the Bacteroides fragilis live bacteria solution, inactivated bacteria powder and lysate solution were observed.
New Zealand white rabbits aged 35 days were selected and randomly divided into the following 6 groups: a blank group (group 1), a model group (group 2), a positive control group (nitazoxanide) (group 3), a Bacteroides fragilis inactivated bacteria powder group (group 4), a Bacteroides fragilis lysate solution group (group 5), and a Bacteroides fragilis live bacteria solution group (group 6), with 8 rabbits in each group. The New Zealand white rabbits in groups 2 to 6 were intragastrically inoculated with 1.5×10^4 Cryptosporidium cuniculus oocysts, and the blank group was intragastrically given normal saline. […] The stools were collected to prepare a stool suspension, and structures with oocysts were observed under a microscope, indicating successful modeling. Therefore, treatment could be carried out. The blank group was given normal saline, and the treatment groups were subjected to drug administration. The treatment was carried out twice daily for 7 consecutive days. The New Zealand white rabbits were observed daily for diarrhea condition. On day 1 of the treatment and at the end of the treatment, the stool samples were collected, and the number of oocysts was observed under a microscope.

[2] = test system: mice with Escherichia coli-induced diarrhea; test: Effect on mice with Escherichia coli-induced diarrhea (Example 6); assay type: in vivo; conditions: positive control, berberine hydrochloride 0.01 g/mL i.g. QD*7 days; Escherichia coli i.p. model
Protocol: Escherichia coli preserved on a slant was inoculated on a nutrient agar plate and cultured at 37° C. for 24 h. Several colonies were then picked, inoculated into MH broth, followed by another 24 hours of culture at 37° C. The culture was then diluted with sterilized normal saline and subjected to turbidity adjustment using a 0.5 Mcfarland turbidimetric tube, thus achieving a bacterial content of 3×10^8 CFU/mL.
Mice weighing about 20 g were selected, and each mouse was intraperitoneally injected with 0.2 mL of the Escherichia coli bacteria solution with a bacterial content of 3×10^8 CFU/mL for diarrhea induction. A positive control group received a 0.01 g/mL aqueous berberine hydrochloride solution administered intragastrically. The experimental grouping and procedures were the same as in Example 3. The mice were continuously observed for 5 h, and the diarrhea indices of the mice were recorded.

Row | Structure (SMILES) | Number of oocysts in stools (×10^6 oocysts/rabbit, mean ± SD) ([1]; D 1 of administration, i.g. Bid*7 days, nitazoxanide 10 mg/kg, Bacteroides fragilis 1 × 10^8 cells/mL) | Number of oocysts in stools (×10^6 oocysts/rabbit, mean ± SD) ([1]; D 2 of administration, doses as Table 23) | Number of oocysts in stools (×10^6 oocysts/rabbit, mean ± SD) ([1]; D 3 of administration, doses as Table 23) | Number of oocysts in stools (×10^6 oocysts/rabbit, mean ± SD) ([1]; D 4 of administration, doses as Table 23) | Number of oocysts in stools (×10^6 oocysts/rabbit, mean ± SD) ([1]; D 5 of administration, doses as Table 23) | Number of oocysts in stools (×10^6 oocysts/rabbit, mean ± SD) ([1]; D 6 of administration, doses as Table 23) | Number of oocysts in stools (×10^6 oocysts/rabbit, mean ± SD) ([1]; D 7 of administration, doses as Table 23) | total number of oocysts in the stools of each New Zealand rabbit during the treatment period ([1]; FIG. 5, P<0.0001, doses as Table 23) | Diarrhea index [2]
1 | CC(=O)Oc1ccccc1C(=O)Nc1ncc([N+](=O)[O-])s1 [nitazoxanide] | 1.8 ± 0.6 ×10^6 oocysts/rabbit | 3.2 ± 1.5 ×10^6 oocysts/rabbit | 2.8 ± 0.9 ×10^6 oocysts/rabbit | 2.2 ± 0.2 ×10^6 oocysts/rabbit | 1.5 ± 1.1 ×10^6 oocysts/rabbit | 1.3 ± 0.1 ×10^6 oocysts/rabbit | 0.6 ± 0.2 ×10^6 oocysts/rabbit | significantly lower than that in the model group | 
2 | COc1ccc2cc3[n+](cc2c1OC)CCc1cc2c(cc1-3)OCO2 [berberine hydrochloride] |  |  |  |  |  |  |  |  | 1.25 ± 0.13
